Experimental data from US20260317332A1, “BICYCLIC HETEROCYCLE COMPOUNDS FOR THE TREATMENT OF CANCER” (Hoffmann-La Roche Inc., priority 2023, published 2026).

Assays:
[1] = target: T1, CD73 (Homo sapiens, UniProt P21589); assay: CD73 Cellular Assay; assay type: cell-based; parameters: 40 μL of MDA-MB-231 cells (ATCC, HTB-26, breast cancer); host or cells: MDA-MB-231; conditions: MDA-MB-231 cells; 200 μM AMP working solution; 45 min at 37° C.; malachite readout; read-out: Cellular IC50 against CD73
T1 sequence (P21589 27-574): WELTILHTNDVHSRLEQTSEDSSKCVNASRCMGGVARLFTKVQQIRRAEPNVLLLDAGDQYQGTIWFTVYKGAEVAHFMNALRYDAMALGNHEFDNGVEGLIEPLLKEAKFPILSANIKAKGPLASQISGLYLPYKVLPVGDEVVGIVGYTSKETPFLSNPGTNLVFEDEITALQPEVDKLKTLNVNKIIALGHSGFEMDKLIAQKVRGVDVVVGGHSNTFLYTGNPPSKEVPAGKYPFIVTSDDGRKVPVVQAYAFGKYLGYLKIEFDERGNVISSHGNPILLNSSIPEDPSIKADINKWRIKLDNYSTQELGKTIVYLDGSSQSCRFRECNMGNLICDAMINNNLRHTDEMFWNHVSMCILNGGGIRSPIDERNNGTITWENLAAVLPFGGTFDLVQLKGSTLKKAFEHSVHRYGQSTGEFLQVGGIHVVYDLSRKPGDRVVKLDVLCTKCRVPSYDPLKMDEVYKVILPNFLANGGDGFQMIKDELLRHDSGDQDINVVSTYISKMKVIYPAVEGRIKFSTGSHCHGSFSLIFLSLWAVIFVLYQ
Method in brief: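 MDA-MB-231 cells (20,000 cells/mL) in HEPES pH 7.4 buffer preincubated 30 min with 1:3 compound dilutions, then AMP (200 μM working solution) added for 45 min at 37 °C, 5% CO2. Released phosphate in supernatant detected by malachite green absorbance at 620 nm; % inhibition normalised to neutral and inhibitor controls.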

[2] = system: CD8+ T cells; assay: T Cell Proliferation Assay: CD8+ T cell proliferation; assay type: cell-based; conditions: high AMP condition (200 μM AMP, 5 μM EHNA), CD3/CD28 beads, 72 hours, read-out: CD8+ T cell proliferation EC50 (rescue of proliferation)
Method: (§1) The purpose of this assay is to characterize the potency of inhibitors of CD73 in rescuing adenosine-mediated inhibition of T cell proliferation. CD4+ or CD8+ T cells were isolated from peripheral blood mononuclear cells (PBMCs, HemaCare) by immunomagnetic negative selection using EasySep™ Isolation Kit (STEMCELL Technologies) following the supplier's protocol. Pan T cells were pelleted by centrifugation at 300 gravitational force (g) for 5 minutes at room temperature and re-suspended in PBS. CellTrace™ Violet staining solution (Invitrogen) was added at 1:5,000 and incubated at 37° C. for 20 minutes, protected from light. Complete culture medium [RPMI-1640 (Gibco), 10% Fetal Bovine Serum (Gibco), 2 mM GlutaMAX (Gibco) and 1 mM Sodium Pyruvate (Gibco), 100 U/mL Penicillin-Streptomycin (Gibco) and MEM non-essential amino acids (NEAA) cell culture supplement (1:100, Gibco)] was then added, mixed, and incubated at 37° C. for 5 minutes. Cells were then pelleted by centrifugation at 300 g for 5 minutes at room temperature and re-suspended in fresh, pre-warmed complete culture medium. 50 μL of cells were seeded per well in 96 well u-bottom plates. 50 μL of CD3/CD28 beads-containing medium and 50 μL of media containing compounds were added into cells. 50 μL of media containing AMP and EHNA hydrochloride (Sigma-Aldrich) was added into cells at 200 μM and 5 μM final concentration, respectively. Cells were incubated for 72 hours at 37° C. in a 5% CO2 incubator. 200 μL of PBS was then added to each well and cells were centrifuged at 300 g, 4° C. for 10 minutes. The supernatant was discarded. 50 μL of Human TruStain FcX™ (Fc Receptor Blocking Solution, BioLegend) diluted 1:100 in PBS was added to each well, mixed gently and incubated for 20 minutes at 4° C. 50 μL of staining solution (BioLegend) was added to each well, mixed gently and incubated at 4° C. for 30 minutes. Cells were centrifuged at 300 g, 4° C. for 10 minutes and the supernatant was discarded. The cell pellets were washed with 250 μL of cell staining buffer and centrifuged at 300 g, 4° C. for 10 minutes. The supernatant was discarded and cells were re-suspended in 60 μL of cell staining buffer and analyzed on a flow cytometer.

[3] = system: CD4+ T cells; assay: T Cell Proliferation Assay: CD4+ T cell proliferation; assay type: cell-based; conditions: Homo sapiens, high AMP condition (200 μM AMP, 5 μM EHNA), CD3/CD28 beads, 72 hours, read-out: CD4+ T cell proliferation EC50 (rescue of proliferation)
Method: as §1

[4] = target: T1, CD73; assay: Human CD73 Biochemical Assay; conditions: 0.05 nM recombinant CD73; AMP 5.56 μM final; 10 min at room temperature; LC/MS adenosine readout; read-out: Enzymatic IC50 against human CD73
Method in brief: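 Recombinant CD73 at 0.05 nM was preincubated with compound 15 min at room temperature in Tris pH 7.5 buffer with 1 mM NaH2PO4. Reaction ran 10 min with 5.56 μM AMP final and was stopped with TCA. Adenosine was quantified by LC-MS/MS MRM against a 13C5-adenosine internal standard using peak area ratios.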

Cn1nc(O[C@H](c2ccnc(OCC(F)F)c2)C(F)F)c2cc(-c3c[nH]c(=O)[nH]c3=O)nnc21 [Example 11B, 5-[3-[(1R)-1-[2-(2,2-difluoroethoxy)-4-pyridyl]-2,2-difluoro-ethoxy]-1-methyl-pyrazolo[3,4-c]pyridazin-5-yl]-1H-pyrimidine-2,4-dione]
IC50 [1]: 0.72 nM
EC50 [2]: 0.29 nM
EC50 [3]: 0.24 nM
IC50 [4]: 0.05 nM
